# In patent publication US20150050219A1, “COLOURED SOLUTION IN PARTICULAR FOR USE IN SURGICAL METHODS FOR THE TREATMENT OF THE BODIES OF HUMANS OR ANIMALS” (BBS S.r.l., priority 2012, published 2015):
# Experiment: density at 20° C.
# Format: physicochemical
# Settings: temperature of 20° C.
# Protocol: whilst the dye is defined by the formula (V) and is present in a weight ratio of 0.008% to the solvent. In particular, with the solvent consisting of perfluorooctane (VI), the solution has an absorbance equal to 1,403 at a wavelength of 580 nm. Said solution also has a density of 1,756 kg/l at a temperature of 20° C. (substantially equal to that of perfluorooctane alone which, at 20° C., is equal to 1,755).
structure (smiles),measurement,value
FC(F)(F)C(F)(F)C(F)(F)C(F)(F)C(F)(F)C(F)(F)C(F)(F)C(F)(F)F [perfluorooctane],density,"1,755 kg/l"
